#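 Method: 48-hour compound exposure of cells in 96-well plates, five concentrations, linear interpolation of endpoints. The concentration for 50% growth inhibition is given as GI50. TGI marks complete inhibition of growth.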
# Experiments:
# Assay in all cases: NCI anticancer screen, dose series, 48 h
# OVCAR-8 ovarian = system: OVCAR-8 ovarian
# ACHN renal = system: ACHN renal
# SF-268 CNS = system: SF-268 CNS
# SW-620 colon = system: SW-620 colon
# COLO 205 colon = system: COLO 205 colon
# RPMI-8226 leukemia = system: RPMI-8226 leukemia
# SN12C renal = system: SN12C renal
# NCI-H226 lung = system: NCI-H226 lung
# SNB-75 CNS = system: SNB-75 CNS
# SK-MEL-2 melanoma = system: SK-MEL-2 melanoma
# HCT-116 colon = system: HCT-116 colon
# MDA-MB-231 breast = system: MDA-MB-231 breast
# UACC-257 melanoma = system: UACC-257 melanoma
# OVCAR-3 ovarian = system: OVCAR-3 ovarian
# CAKI-1 renal = system: CAKI-1 renal
# NCI/ADR-RES ovarian = system: NCI/ADR-RES ovarian
# HT29 colon = system: HT29 colon
# BT-549 breast = system: BT-549 breast
# SNB-19 CNS = system: SNB-19 CNS
# RXF 393 renal = system: RXF 393 renal
# KM12 colon = system: KM12 colon
# HCT-15 colon = system: HCT-15 colon
# OVCAR-4 ovarian = system: OVCAR-4 ovarian
# IGROV1 ovarian = system: IGROV1 ovarian
# SK-MEL-5 melanoma = system: SK-MEL-5 melanoma
# M14 melanoma = system: M14 melanoma
# NCI-H23 lung = system: NCI-H23 lung
# OVCAR-5 ovarian = system: OVCAR-5 ovarian
structure (smiles),measurement,setting,value
COc1ccc(NC(=O)c2ccc(NC3=C(Cl)C(=O)N(Cc4ccccc4)C3=O)cc2)c(OC)c1,GI50,OVCAR-8 ovarian,29.2 µM
same,TGI,OVCAR-8 ovarian,> 100 µM
same,GI50,ACHN renal,36 µM
same,TGI,ACHN renal,> 100 µM
same,GI50,SF-268 CNS,29.1 µM
same,TGI,SF-268 CNS,> 100 µM
same,GI50,SW-620 colon,29.2 µM
same,TGI,SW-620 colon,> 100 µM
same,GI50,COLO 205 colon,44.4 µM
same,TGI,COLO 205 colon,> 100 µM
same,GI50,RPMI-8226 leukemia,4.85 µM
same,TGI,RPMI-8226 leukemia,22.8 µM
same,GI50,SN12C renal,29.2 µM
same,TGI,SN12C renal,83.5 µM
same,GI50,NCI-H226 lung,43.9 µM
same,TGI,NCI-H226 lung,> 100 µM
same,GI50,SNB-75 CNS,47.1 µM
same,TGI,SNB-75 CNS,> 100 µM
same,GI50,SK-MEL-2 melanoma,25.7 µM
same,TGI,SK-MEL-2 melanoma,68.9 µM
same,GI50,HCT-116 colon,5.4 µM
same,TGI,HCT-116 colon,25.6 µM
same,GI50,MDA-MB-231 breast,> 100 µM
same,TGI,MDA-MB-231 breast,> 100 µM
same,GI50,UACC-257 melanoma,47 µM
same,TGI,UACC-257 melanoma,> 100 µM
same,GI50,OVCAR-3 ovarian,15.1 µM
same,TGI,OVCAR-3 ovarian,33.2 µM
same,GI50,CAKI-1 renal,0.637 µM
same,TGI,CAKI-1 renal,1.96 µM
same,GI50,NCI/ADR-RES ovarian,17.8 µM
same,TGI,NCI/ADR-RES ovarian,47.3 µM
same,GI50,HT29 colon,41.5 µM
same,TGI,HT29 colon,> 100 µM
same,GI50,BT-549 breast,13.1 µM
same,TGI,BT-549 breast,45 µM
same,GI50,SNB-19 CNS,57.4 µM
same,TGI,SNB-19 CNS,> 100 µM
same,GI50,RXF 393 renal,50.2 µM
same,TGI,RXF 393 renal,> 100 µM
same,GI50,KM12 colon,27.7 µM
same,TGI,KM12 colon,92.8 µM
same,GI50,HCT-15 colon,20 µM
same,TGI,HCT-15 colon,46.3 µM
same,GI50,OVCAR-4 ovarian,61.8 µM
same,TGI,OVCAR-4 ovarian,> 100 µM
same,GI50,IGROV1 ovarian,10.8 µM
same,TGI,IGROV1 ovarian,73.8 µM
same,GI50,SK-MEL-5 melanoma,26.2 µM
same,TGI,SK-MEL-5 melanoma,75.2 µM
same,GI50,M14 melanoma,18.5 µM
same,TGI,M14 melanoma,48 µM
same,GI50,NCI-H23 lung,14.3 µM
same,TGI,NCI-H23 lung,29.2 µM
same,GI50,OVCAR-5 ovarian,49.3 µM
same,TGI,OVCAR-5 ovarian,> 100 µM
